System: Winter oilseed rape (cv. Pronto)
Experiment: Shoot elongation in winter oilseed rape
Format: in vivo
Conditions: active ingredient alone
Protocol: The tank mixers employed in Example 1 are prepared by mixing an emulsion concentrate with a metconazole content of 90 g/l and an aqueous concentrate with mepiquat chloride content of 600 g/l using a magnetic stirrer (experiment T1).
Winter oilseed rape (cv. Pronto) was sown in autumn and approximately one month later treated as specified in Table 3. Shoot elongation and root development were assessed a few weeks later. The elongation results are compiled in Table 3.

SMILES | shortening effect (in words)
CC1(C)CCC(Cc2ccc(Cl)cc2)C1(O)Cn1cncn1 (centres unmarked) [Metconazole, metconazole] | very pronounced
C[N+]1(C)CCCCC1.[Cl-] [mepiquat-chloride, N,N-dimethylpiperidinium chloride] | only results in some degree of shortening at scoring date 2
